Source: patent US4965280A, “Antifungal carbinols” (E. I. Du Pont de Nemours and Company, priority 1989, dated 1990)
≈ marks a conversion by molar mass, not a printed value. Where two headings read alike, the source gives them in different places.

Columns and labels:
[1] = system: Candida albicans ATCC 11651; experiment: In vivo systemic Candida infection in mice, primary assay; set-up: species or system Candida albicans; CF-1 female mice; conditions: Candida albicans, 150 mg/kg per day, read-out: % Survival
How it was run: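 CF-1 female mice (20 g, 10 per group) were infected IV with 0.2 ml of 1×10^7/ml C. albicans ATCC 11651, then given test compound subcutaneously at 50 or 150 mg/kg/day at 1 and 6 h post-infection and once daily for three more days. Survival was followed for 21 days against infected untreated mice; ≥70% protection at 14 days was scored active.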

Venturia inaequalis = experiment: Example A apple scab; type: in vivo; conditions: read-out: disease control rating, Ex. A
How it was run: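 Acetone solution (6% of final vol.) → suspension at 100 or 20 ppm in water + 250 ppm TREM 014 surfactant; sprayed to run-off on apple seedlings.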

[2] = system: Cercosporidium personatum; experiment: Example B Peanut Late Leafspot; type: in vivo; conditions: Nothopassalora personata, read-out: disease control rating, Ex. B
How it was run: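 Foliar spray on peanut seedlings, to run-off; test rates 100 or 20 ppm. Formulation: acetone at 6% of final volume, water with 250 ppm polyhydric alcohol ester surfactant.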

Botrytis cinerea = experiment: Example C bean grey mold; type: in vivo; conditions: Botrytis cinerea, 24 h, read-out: disease control rating, Ex. C
How it was run: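 Broad bean seedlings; foliar spray to run-off. Cmpd 100 or 20 ppm in water + 250 ppm TREM 014, acetone 6% v/v final.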

[3] = system: Erysiphe graminis f. sp. tritici; experiment: Example D wheat powdery mildew; type: in vivo; conditions: Blumeria graminis, 144 h, read-out: disease control rating, Ex. D
How it was run: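 Spray to run-off on wheat seedlings; test suspension 100 or 20 ppm compound, acetone 6% v/v, 250 ppm polyhydric alcohol ester surfactant in water.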

Pyricularia oryzae = experiment: whole plant or invertebrate; type: in vivo; conditions: Pyricularia oryzae, 120 h; for pest or weed control at 100 ppm: read-out: disease control rating, Ex. E, 100 PPM
Rhizoctonia solani [4] = experiment: Example F rice sheath blight; type: in vivo; conditions: Rhizoctonia solani, 144 h, read-out: disease control rating, Ex. F
How it was run: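 Spray to run-off on rice seedlings; test suspension 100 or 20 ppm compound in water + 250 ppm TREM 014 surfactant, acetone 6% final volume.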

Puccinia recondita = experiment: Example G wheat leaf rust; type: in vivo; conditions: read-out: disease control rating, Ex. G
Phytophthora infestans = experiment: whole plant or invertebrate; type: in vivo; conditions: Phytophthora infestans, in Solanum lycopersicum, read-out: disease control rating, Ex. H, 100 PPM
Plasmorpara viticola = experiment: Example I grape downy mildew; type: in vivo; conditions: read-out: disease control rating, Ex. I
How it was run: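 Applied as a foliar spray to run-off on grape seedlings, the compounds were formulated at 100 or 20 ppm in water containing 250 ppm TREM 014, with acetone making up 6% of the volume.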

Pythium aphanadermatum = experiment: Example J cucumber damping off; type: in vivo; conditions: Pythium, 336 h; 5 kg/ha; read-out: disease control rating, Ex. J
How it was run: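 This cucumber damping-off test used soil and seeds infested with a sand–cereal preparation carrying mycelium of Pythium aphanadermatum. Incubation took place in a growth chamber held at 30° C. for 14 days. Afterwards, the extent of disease was scored as a disease control rating.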

Rhizoctonia solani [5] = experiment: Example K cotton blight; type: in vivo; conditions: 336 h, 5 kg/ha, read-out: disease control rating, Ex. K
Method: […] Seeds and soil were then inoculated with a mixture of sand, cereal and mycelium of the fungus Rhizoctonia solani, causal agent of cotton blight, and incubated in a growth chamber at 30° C. for 14 days. Disease ratings were then made.

[6] = system: Fusarium oxysporum f. sp. cucumerinum; experiment: Example L cucumber wilt; type: in vivo; conditions: 336 h, 5 kg/ha, read-out: disease control rating, Ex. L
Method: […] Seeds and soil were then inoculated with a mixture of sand, cereal and mycelium of the fungus Fusarium oxysporum f. sp. cucumerinum, causal agent of cucumber wilt, and incubated in a growth chamber at 30° C. for 14 days. Disease ratings were then made.

Sclerotium rolfsii = experiment: Example M southern blight; type: in vivo; conditions: Agroathelia rolfsii, 336 h; 5 kg/ha; read-out: disease control rating, Ex. M
Method: […] Seeds and soil were then inoculated with a mixture of sand, cereal and mycelium of the fungus Sclerotium rolfsii, causal agent of sourthern blight, and incubated in a growth chamber at 30° C. for 14 days. Disease ratings were then made.

[7] = system: Candida albicans ATCC 11651; experiment: In vitro antifungal MIC, microtiter broth dilution; conditions: Candida albicans, ATCC11651, 24 h, read-out: MIC values, C. albicans, 30°, 24 hours
[8] = system: Aspergillus fumigatus ATCC 28214; experiment: In vitro antifungal MIC, microtiter broth dilution; conditions: Aspergillus fumigatus, ATCC28214, 24 h, read-out: MIC values, A. fumigatus, 30°, 24 hours
Method: In vitro activity (Table 5) is expressed in terms of the minimal inhibitory concentration (MIC) of the test compound which inhibits the growth of yeasts and fungi.
The target organisms, Candida albicans ATCC 11651 and Aspergillus fumigatus ATCC 28214 are standardized, [V. Bezjak, J. Clinical Micro., 21 509-512 (1984)], to a concentration of 10^7 organisms/ml and maintained at -70° until use. Test compounds are solubilized in dimethyl sulfoxide (DMSO) and diluted in Eagle's Minimum Essential Medium (EMEM) broth to achieve a final concentration of 200 μg/ml. Stock solutions of standard antifungal agents are stored at -70° and diluted in EMEM as required.
The in vitro assay utilizes a microtiter broth dilution technique [L. Polonelli and G. Morace, Mycopathologia, 86, 21-28 (1984)] and C. […] The appropriate wells are inoculated with the required organism (C. albicans at 1×10^4 organisms/ml and A. fumigatus at 5×10^5 organisms/ml) and the assay incubated at 30° for 24 hours.

Compound | responders at 150 mg/kg ([1]; ATCC11651, 168 h, day 7) | responders at 150 mg/kg ([1]; ATCC11651, 336 h, day 14) | responders at 150 mg/kg ([1]; ATCC11651, 504 h, day 21) | pest or weed control at 100 ppm (Botrytis cinerea) | pest or weed control at 100 ppm (Pyricularia oryzae) | pest or weed control at 100 ppm (Rhizoctonia solani [4]) | pest or weed control at 100 ppm (Phytophthora infestans) | pest or weed control at 100 ppm (Plasmorpara viticola) | pest or weed control at 5000 g/ha (Pythium aphanadermatum) | pest or weed control at 5000 g/ha (Rhizoctonia solani [5]) | pest or weed control at 5000 g/ha [6] | pest or weed control at 5000 g/ha (Sclerotium rolfsii) | MIC [7] | MIC [8] | pest or weed control at 100 ppm (Venturia inaequalis) | pest or weed control at 100 ppm [2] | pest or weed control at 100 ppm [3] | pest or weed control at 100 ppm (Puccinia recondita) | further results
C=C(c1ccc(C(F)(F)F)cc1)C(O)(Cn1cncn1)c1ccc(Cl)cc1 (stereo not drawn) [Example 67] | 100% | 100% | 100% | 75% | 0% | 68% | 2% | 1% | 0% | 0% | 0% | 0% | 0.03 µg/mL (≈ 0.0762 µM) | 100 µg/mL (≈ 254 µM) | – | – | – | – | pest or weed control at 20 ppm (Venturia inaequalis; 20 PPM): 58%; pest or weed control at 20 ppm ([2]; 20 PPM): 99%; pest or weed control at 20 ppm (Botrytis cinerea; 20 PPM): 60%; pest or weed control at 20 ppm ([3]; 20 PPM): 85%; pest or weed control at 20 ppm (Pyricularia oryzae; read-out: disease control rating, Ex. E, 20 PPM): 0%; pest or weed control at 20 ppm (Rhizoctonia solani [4]; 20 PPM): 35%; pest or weed control at 20 ppm (Puccinia recondita; 20 PPM): 89%
C=C(c1cccc2ccccc12)C(O)(Cn1cncn1)c1ccc(F)cc1 (stereo not drawn) [Example 208] | 0% | 0% | 0% | 83% | 4% | 61% | 0% | 74% | 0% | 0% | 0% | 0% | 1.6 µg/mL (≈ 4.45 µM) | 50 µg/mL (≈ 139 µM) | 84% | 37% | 76% | 97% | –
C=C(c1ccc(F)cc1)C(Cn1cncn1)(OC)c1ccc(F)cc1 (stereo not drawn) [Example 359] | 100% | 80% | 80% | 83% | 88% | 62% | 0% | 0% | 0% | 0% | 0% | 0% | 0.4 µg/mL (≈ 1.17 µM) | 50 µg/mL (≈ 146 µM) | 72% | 100% | 95% | 100% | –
C=CCOC(Cn1cncn1)(C(=C)c1ccc(F)cc1)c1ccc(F)cc1 (stereo not drawn) [Example 360] | 100% | 60% | 40% | 71% | 74% | 49% | 0% | 0% | 0% | 0% | 0% | 0% | 0.8 µg/mL (≈ 2.18 µM) | 100 µg/mL (≈ 272 µM) | 88% | 100% | 86% | 93% | –
